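Where inhibition never reached the appropriate level, the endpoint shown equals the highest concentration tested. Otherwise, values were interpolated linearly from a five-concentration, 48-hour dose response in 96-well plates. At the GI50, growth is halved. At the TGI there is no net growth.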
How the values were obtained:
Test in all cases: inhibition of tumour cell growth, NCI panel, 48 h
OVCAR-4 ovarian = tested on: OVCAR-4 ovarian
SF-268 CNS = tested on: SF-268 CNS
HT29 colon = tested on: HT29 colon
MCF7 breast = tested on: MCF7 breast
HCT-116 colon = tested on: HCT-116 colon
A549 NSCLC = tested on: A549 NSCLC
SN12C renal = tested on: SN12C renal
DU-145 prostate = tested on: DU-145 prostate
NCI-H460 lung = tested on: NCI-H460 lung
COLO 205 colon = tested on: COLO 205 colon
ACHN renal = tested on: ACHN renal
MDA-MB-435 = tested on: MDA-MB-435
PC-3 prostate = tested on: PC-3 prostate
CCRF-CEM leukemia = tested on: CCRF-CEM leukemia
SNB-19 CNS = tested on: SNB-19 CNS
UO-31 renal = tested on: UO-31 renal
SK-MEL-28 melanoma = tested on: SK-MEL-28 melanoma
HS 578T breast = tested on: HS 578T breast
TK-10 renal = tested on: TK-10 renal
RXF 393 renal = tested on: RXF 393 renal
HOP-62 NSCLC = tested on: HOP-62 NSCLC
SK-MEL-5 melanoma = tested on: SK-MEL-5 melanoma
BT-549 breast = tested on: BT-549 breast
CAKI-1 renal = tested on: CAKI-1 renal
MALME-3M melanoma = tested on: MALME-3M melanoma
OVCAR-8 ovarian = tested on: OVCAR-8 ovarian
SK-MEL-2 melanoma = tested on: SK-MEL-2 melanoma
HCT-15 colon = tested on: HCT-15 colon
UACC-62 melanoma = tested on: UACC-62 melanoma
NCI-H23 lung = tested on: NCI-H23 lung
U251 CNS = tested on: U251 CNS
MDA-MB-231 breast = tested on: MDA-MB-231 breast
LOX IMVI melanoma = tested on: LOX IMVI melanoma
SF-539 CNS = tested on: SF-539 CNS
K-562 leukemia = tested on: K-562 leukemia
OVCAR-3 ovarian = tested on: OVCAR-3 ovarian
EKVX NSCLC = tested on: EKVX NSCLC
OVCAR-5 ovarian = tested on: OVCAR-5 ovarian
MOLT-4 leukemia = tested on: MOLT-4 leukemia
SF-295 CNS = tested on: SF-295 CNS
A498 renal = tested on: A498 renal
SR leukemia = tested on: SR leukemia
NCI-H522 lung = tested on: NCI-H522 lung
KM12 colon = tested on: KM12 colon
786-0 renal = tested on: 786-0 renal
NCI-H226 lung = tested on: NCI-H226 lung
UACC-257 melanoma = tested on: UACC-257 melanoma
RPMI-8226 leukemia = tested on: RPMI-8226 leukemia
HCC-2998 colon = tested on: HCC-2998 colon
M14 melanoma = tested on: M14 melanoma
SW-620 colon = tested on: SW-620 colon
SK-OV-3 ovarian = tested on: SK-OV-3 ovarian
NCI/ADR-RES ovarian = tested on: NCI/ADR-RES ovarian
SNB-75 CNS = tested on: SNB-75 CNS
HL-60(TB) leukemia = tested on: HL-60(TB) leukemia
IGROV1 ovarian = tested on: IGROV1 ovarian

Structure (SMILES): O=C1c2ccccc2C(=O)c2c1c(=O)c(=O)c1ccccc1c(=O)n2Cc1ccccc1
- GI50 (OVCAR-4 ovarian): > 100 µM
- TGI (OVCAR-4 ovarian): > 100 µM
- GI50 (SF-268 CNS): > 100 µM
- TGI (SF-268 CNS): > 100 µM
- GI50 (HT29 colon): > 100 µM
- TGI (HT29 colon): > 100 µM
- GI50 (MCF7 breast): 79.1 µM
- TGI (MCF7 breast): > 100 µM
- GI50 (HCT-116 colon): > 100 µM
- TGI (HCT-116 colon): > 100 µM
- GI50 (A549 NSCLC): 47.2 µM
- TGI (A549 NSCLC): > 100 µM
- GI50 (SN12C renal): > 100 µM
- TGI (SN12C renal): > 100 µM
- GI50 (DU-145 prostate): 47.9 µM
- TGI (DU-145 prostate): > 100 µM
- GI50 (NCI-H460 lung): 50.7 µM
- TGI (NCI-H460 lung): > 100 µM
- GI50 (COLO 205 colon): > 100 µM
- TGI (COLO 205 colon): > 100 µM
- GI50 (ACHN renal): > 100 µM
- TGI (ACHN renal): > 100 µM
- GI50 (MDA-MB-435): > 100 µM
- TGI (MDA-MB-435): > 100 µM
- GI50 (PC-3 prostate): > 100 µM
- TGI (PC-3 prostate): > 100 µM
- GI50 (CCRF-CEM leukemia): 7.67 µM
- TGI (CCRF-CEM leukemia): > 100 µM
- GI50 (SNB-19 CNS): > 100 µM
- TGI (SNB-19 CNS): > 100 µM
- GI50 (UO-31 renal): > 100 µM
- TGI (UO-31 renal): > 100 µM
- GI50 (SK-MEL-28 melanoma): > 100 µM
- TGI (SK-MEL-28 melanoma): > 100 µM
- GI50 (HS 578T breast): > 100 µM
- TGI (HS 578T breast): > 100 µM
- GI50 (TK-10 renal): > 100 µM
- TGI (TK-10 renal): > 100 µM
- GI50 (RXF 393 renal): > 100 µM
- TGI (RXF 393 renal): > 100 µM
- GI50 (HOP-62 NSCLC): > 100 µM
- TGI (HOP-62 NSCLC): > 100 µM
- GI50 (SK-MEL-5 melanoma): 15.8 µM
- TGI (SK-MEL-5 melanoma): 47.2 µM
- GI50 (BT-549 breast): > 100 µM
- TGI (BT-549 breast): > 100 µM
- GI50 (CAKI-1 renal): > 100 µM
- TGI (CAKI-1 renal): > 100 µM
- GI50 (MALME-3M melanoma): 28.6 µM
- TGI (MALME-3M melanoma): 80.1 µM
- GI50 (OVCAR-8 ovarian): > 100 µM
- TGI (OVCAR-8 ovarian): > 100 µM
- GI50 (SK-MEL-2 melanoma): > 100 µM
- TGI (SK-MEL-2 melanoma): > 100 µM
- GI50 (HCT-15 colon): > 100 µM
- TGI (HCT-15 colon): > 100 µM
- GI50 (UACC-62 melanoma): 66.3 µM
- TGI (UACC-62 melanoma): > 100 µM
- GI50 (NCI-H23 lung): 8.51 µM
- TGI (NCI-H23 lung): > 100 µM
- GI50 (U251 CNS): > 100 µM
- TGI (U251 CNS): > 100 µM
- GI50 (MDA-MB-231 breast): > 100 µM
- TGI (MDA-MB-231 breast): > 100 µM
- GI50 (LOX IMVI melanoma): 92.9 µM
- TGI (LOX IMVI melanoma): > 100 µM
- GI50 (SF-539 CNS): > 100 µM
- TGI (SF-539 CNS): > 100 µM
- GI50 (K-562 leukemia): 53.7 µM
- TGI (K-562 leukemia): > 100 µM
- GI50 (OVCAR-3 ovarian): 88.8 µM
- TGI (OVCAR-3 ovarian): > 100 µM
- GI50 (EKVX NSCLC): > 100 µM
- TGI (EKVX NSCLC): > 100 µM
- GI50 (OVCAR-5 ovarian): > 100 µM
- TGI (OVCAR-5 ovarian): > 100 µM
- GI50 (MOLT-4 leukemia): 38.2 µM
- TGI (MOLT-4 leukemia): > 100 µM
- GI50 (SF-295 CNS): 53.1 µM
- TGI (SF-295 CNS): > 100 µM
- GI50 (A498 renal): > 100 µM
- TGI (A498 renal): > 100 µM
- GI50 (SR leukemia): 29 µM
- TGI (SR leukemia): > 100 µM
- GI50 (NCI-H522 lung): > 100 µM
- TGI (NCI-H522 lung): > 100 µM
- GI50 (KM12 colon): 81.9 µM
- TGI (KM12 colon): > 100 µM
- GI50 (786-0 renal): > 100 µM
- TGI (786-0 renal): > 100 µM
- GI50 (NCI-H226 lung): > 100 µM
- TGI (NCI-H226 lung): > 100 µM
- GI50 (UACC-257 melanoma): > 100 µM
- TGI (UACC-257 melanoma): > 100 µM
- GI50 (RPMI-8226 leukemia): 28.5 µM
- TGI (RPMI-8226 leukemia): 85.2 µM
- GI50 (HCC-2998 colon): 84.2 µM
- TGI (HCC-2998 colon): > 100 µM
- GI50 (M14 melanoma): 36.6 µM
- TGI (M14 melanoma): > 100 µM
- GI50 (SW-620 colon): > 100 µM
- TGI (SW-620 colon): > 100 µM
- GI50 (SK-OV-3 ovarian): > 100 µM
- TGI (SK-OV-3 ovarian): > 100 µM
- GI50 (NCI/ADR-RES ovarian): > 100 µM
- TGI (NCI/ADR-RES ovarian): > 100 µM
- GI50 (SNB-75 CNS): > 100 µM
- TGI (SNB-75 CNS): > 100 µM
- GI50 (HL-60(TB) leukemia): 41.8 µM
- TGI (HL-60(TB) leukemia): > 100 µM
- GI50 (IGROV1 ovarian): 79.2 µM
- TGI (IGROV1 ovarian): > 100 µM

— PubChem BioAssay (NCI)
